Data taken from ChEMBL document CHEMBL5380814, “Targeting Receptor-Interacting Protein Kinase 1 by Novel Benzothiazole Derivatives: Treatment of Acute Lung Injury through the Necroptosis Pathway” (J Med Chem, 2023).
The source made the active and inactive calls. The calls are words filed in the database; no cut-off is given here.

Legend:
[1] = test system: L929; assay: Anti-necroptotic activity in mouse L929 cells assessed as inhibition of mouse TNFalpha/Z-VAD-FMK induced necroptosis preincubated with compound for 16 to 24 hrs followed by TZ stimulation for 12 hrs measured by cell-titre glo luminescent cell viability assay; assay type: functional, cell-based; conditions: dose 6.3-800 nM, time 28-36 hrs
[2] = test system: Mus musculus; assay: In vivo anti-inflammatory activity in NNK induced induced C57BL/6J ALI mouse model assessed as decrease in dry lung weight pretreated at 25 to 100 mg/kg, ip for 1 hr followed by NNK administration relative to disease model; assay type: functional, organism-based; conditions: dose 25-100 mg/kg
[3] = test system: Mus musculus; assay: In vivo anti-necrotptic activity in mTNFalpha induced C57BL/6J SIRS mouse model assessed as survival rate pretreated at 20 mg/kg, po for 1 hr followed by mTNFalpha/Z-VAD-FMK administration measured after 40 mins relative to control; assay type: functional; conditions: time 100 min, 1.667 h
[4] = test system: Mus musculus; assay: In vivo anti-necrotptic activity in mTNFalpha induced C57BL/6J SIRS mouse model assessed as reduction in serum IL-6 level pretreated at 5 to 20 mg/kg, po for 1 hr followed by mTNFalpha/Z-VAD-FMK administration measured after 3 hrs by ELISA analysis; assay type: functional, organism-based; conditions: dose 5-20 mg/kg, time 4.0 hrs
[5] = test system: HT-29; assay: Anti-necroptotic activity in human HT-29 cells assessed as inhibition of human TNFalpha/Smac mimetic/Z-VAD-FMK induced necroptosis preincubated with compound upto 50 nM for 16 to 24 hrs followed by TSZ stimulation for 12 hrs measured by cell-titre glo luminescent cell viability assay; assay type: functional, cell-based; conditions: time 28-36 hrs
[6] = test system: Mus musculus; assay: In vivo anti-inflammatory activity in NNK induced induced C57BL/6J ALI mouse model assessed as decrease in bronchoalveolar lavage fluid (BALF) total protein pretreated intraperitoneally for 1 hr followed by NNK administration; assay type: functional, organism-based; conditions: dose 25-100 mg/kg, route ip
[7] = test system: U-937; assay: Anti-necroptotic activity in human U-937 cells assessed as protection against human TNFalpha/Smac mimetic/Z-VAD-FMK induced necroptosis preincubated with compound upto 50 nM for 16 to 24 hrs followed by TSZ stimulation for 12 hrs measured by cell-titre glo luminescent cell viability assay; assay type: functional, cell-based; conditions: time 28-36 hrs
[8] = biological target: Receptor-interacting serine/threonine-protein kinase 3 (Homo sapiens, UniProt Q9Y572); assay: Inhibition of RIPK3 phosphorylation in TSZ-induced human HT-29 cells assessed as blocking of TSZ-induced necrosome formation at 1 uM pretreated with compound for 2 to 6 hrs followed by TSZ stimulation for 6 hrs measured by Western analysis; assay type: cell-based; conditions: time 8-12 hrs
[9] = biological target: T1, Receptor-interacting serine/threonine-protein kinase 1 (Homo sapiens) (UniProt Q13546); assay: Inhibition of RIPK1 phosphorylation in TSZ-induced human HT-29 cells assessed as blocking of TSZ-induced necrosome formation at 1 uM pretreated with compound for 2 to 6 hrs followed by TSZ stimulation for 6 hrs measured by Western analysis; assay type: cell-based; conditions: time 8-12 hrs
T1 sequence (whole entry): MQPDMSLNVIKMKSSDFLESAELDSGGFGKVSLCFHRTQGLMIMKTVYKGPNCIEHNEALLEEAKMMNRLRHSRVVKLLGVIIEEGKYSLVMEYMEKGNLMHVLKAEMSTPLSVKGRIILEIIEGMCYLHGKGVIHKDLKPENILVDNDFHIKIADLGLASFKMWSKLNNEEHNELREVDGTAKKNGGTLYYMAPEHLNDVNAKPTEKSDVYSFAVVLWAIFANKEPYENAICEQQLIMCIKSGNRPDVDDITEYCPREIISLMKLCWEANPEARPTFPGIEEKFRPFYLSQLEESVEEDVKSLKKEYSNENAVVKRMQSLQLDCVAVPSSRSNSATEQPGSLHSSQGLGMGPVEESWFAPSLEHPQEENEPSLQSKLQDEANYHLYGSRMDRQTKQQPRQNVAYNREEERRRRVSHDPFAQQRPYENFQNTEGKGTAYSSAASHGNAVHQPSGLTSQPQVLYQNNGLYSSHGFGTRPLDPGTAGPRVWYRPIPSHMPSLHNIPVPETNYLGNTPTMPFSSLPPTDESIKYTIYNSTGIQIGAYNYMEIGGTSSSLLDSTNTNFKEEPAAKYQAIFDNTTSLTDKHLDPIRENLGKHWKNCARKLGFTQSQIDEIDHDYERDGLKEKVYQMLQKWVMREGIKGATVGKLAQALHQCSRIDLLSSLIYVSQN

[10] = test system: Mus musculus; assay: In vivo anti-inflammatory activity in NNK induced induced C57BL/6J ALI mouse model assessed as mild alveolar thickening in lung pretreated at 25 to 100 mg/kg, ip for 1 hr followed by NNK administration by HE staining analysis; assay type: functional, organism-based; conditions: dose 25-100 mg/kg
[11] = biological target: T2, Mixed lineage kinase domain-like protein (Homo sapiens) (UniProt Q8NB16); assay: Inhibition of MLKLphosphorylation in TSZ-induced human HT-29 cells assessed as blocking of TSZ-induced necrosome formation upto 1 uM pretreated with compound for 6 hrs followed by TSZ stimulation for 6 hrs measured by Western analysis; assay type: cell-based; conditions: time 12.0 hrs
T2 sequence (whole entry): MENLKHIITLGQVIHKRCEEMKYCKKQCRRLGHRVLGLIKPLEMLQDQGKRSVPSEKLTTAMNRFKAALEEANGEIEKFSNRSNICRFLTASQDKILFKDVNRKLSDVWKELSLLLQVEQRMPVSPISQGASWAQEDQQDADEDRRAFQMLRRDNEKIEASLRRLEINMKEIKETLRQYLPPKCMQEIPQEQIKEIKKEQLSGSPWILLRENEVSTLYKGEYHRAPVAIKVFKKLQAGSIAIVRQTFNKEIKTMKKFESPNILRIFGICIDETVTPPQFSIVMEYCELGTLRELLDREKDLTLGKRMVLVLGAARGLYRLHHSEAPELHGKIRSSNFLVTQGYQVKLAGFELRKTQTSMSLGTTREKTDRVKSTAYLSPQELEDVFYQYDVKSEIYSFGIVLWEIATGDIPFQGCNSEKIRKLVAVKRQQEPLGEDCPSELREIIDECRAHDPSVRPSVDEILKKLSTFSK

[12] = test system: HT-29; assay: Anti-necroptotic activity in human HT-29 cells assessed as protection against human TNFalpha/cycloheximide induced necroptosis preincubated with compound upto 10 uM for 16 to 24 hrs followed by TC stimulation for 24 hrs measured by cell-titre glo luminescent cell viability assay; assay type: functional, cell-based; conditions: time 40-48 hrs
[13] = test system: Mus musculus; assay: In vivo anti-necrotptic activity in mTNFalpha induced C57BL/6J SIRS mouse model assessed as survival rate pretreated at 5 mg/kg, po for 1 hr followed by mTNFalpha/Z-VAD-FMK administration measured after 40 mins relative to control; assay type: functional; conditions: time 100 min, 1.667 h
[14] = test system: Mus musculus; assay: In vivo anti-inflammatory activity in NNK induced induced C57BL/6J ALI mouse model assessed as less bleeding point in lung pretreated at 25 to 100 mg/kg, ip for 1 hr followed by NNK administration by HE staining analysis; assay type: functional, organism-based; conditions: dose 25-100 mg/kg
[15] = test system: HT-29; assay: Anti-necroptotic activity in human HT-29 cells assessed as inhibition of human TNFalpha/Smac mimetic/Z-VAD-FMK induced necroptosis preincubated with compound for 16 to 24 hrs followed by TSZ stimulation for 12 hrs measured by cell-titre glo luminescent cell viability assay; assay type: functional, cell-based

Chain of Receptor-interacting serine/threonine-protein kinase 3 (Q9Y572 whole entry, looked up): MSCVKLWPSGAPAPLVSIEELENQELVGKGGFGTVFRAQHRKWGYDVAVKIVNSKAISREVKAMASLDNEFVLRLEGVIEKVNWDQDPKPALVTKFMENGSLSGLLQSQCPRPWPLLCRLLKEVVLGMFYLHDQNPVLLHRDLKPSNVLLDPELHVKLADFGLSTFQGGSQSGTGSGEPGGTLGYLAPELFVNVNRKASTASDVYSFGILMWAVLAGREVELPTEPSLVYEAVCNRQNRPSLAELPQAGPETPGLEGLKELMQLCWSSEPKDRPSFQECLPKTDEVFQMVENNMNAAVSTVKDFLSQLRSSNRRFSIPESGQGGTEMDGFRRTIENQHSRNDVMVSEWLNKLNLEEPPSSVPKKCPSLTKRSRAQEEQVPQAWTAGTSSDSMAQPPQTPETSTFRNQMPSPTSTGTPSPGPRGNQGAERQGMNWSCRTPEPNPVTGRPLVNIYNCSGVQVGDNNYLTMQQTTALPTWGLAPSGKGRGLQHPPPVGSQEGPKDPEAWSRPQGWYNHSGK

CCS(=O)(=O)NC1CCC(C(=O)Nc2nc3cc(F)c(Oc4ccc(F)c(NC(=O)Cc5cccc(C(F)(F)F)c5)c4)cc3s2)CC1 (stereo not given)
Activity [1]: Dose-Dependent Effect
Activity [2]: Active
Activity [3]: 100%
Activity [4]: Active
Activity [5]: Dose-Dependent Effect
Activity [6]: Dose-Dependent Effect
Activity [7]: inactive
inhibition [8]: Active
inhibition [9]: Active
Activity [10]: Active
inhibition [11]: Active
Activity [12]: inactive
Activity [13]: 30%
Activity [14]: Active
EC50 [15]: 22.4 nM
